Broadly, the inhibition is the change of the read-out against control, counted positive when it falls.

SMILES strings stand for the structures. Activity calls are given as the source filed them. No cut-off for these calls is given here. Where a SMILES comes first, the peptide text is derived from it. [ ]: non-standard residue; d: D form. Nle = CCCC[C@H](N)C(=O)O Some results are limits rather than exact numbers.

The target in series [1] is Amyloid-beta precursor protein (Homo sapiens) (UniProt P05067). Description: Inhibition of amyloid beta 40 (unknown origin) aggregation assessed as assessed as decrease in oligomer formation by measuring decrease in oligomer-specific A11 antibody spots at 150 uM and measured for 48 hrs by Dot-Blot assay.
For series [2] the target is unchanged. Description: Inhibition of amyloid beta 40 (unknown origin) aggregation assessed as reduction in fibril formation by measuring fluorescence intensity at 100 to 500 uM measured for 72 hrs by ThT flourescence assay. The following applies: dose 100-500 µM.
The subject of series [3] is PC-12. As to the kind of experiment: Neuroprotective activity against amyloid beta 40-induced cytotoxicity in rat PC12 cells assessed as increase in cell viability at compound:Abeta40 concentration ratio of 1:5 and incubated for 24 hrs by MTT assay relative to control. The class given is functional. A general note: Formazan colour is commonly taken as a measure of viable cells.

The target of series [4] is Amyloid-beta precursor protein (Homo sapiens) (UniProt P05067). Description: Inhibition of amyloid beta 42 (unknown origin) aggregation assessed as decrease in fibril formation by measuring fluorescence intensity and measured for 72 hrs by ThT flourescence assay.
Series [5] has the same target. As to the kind of experiment: Inhibition of amyloid beta 40 (unknown origin) aggregation assessed as reduction in fibril formation by measuring fluorescence intensity at compound:Abeta40 concentration ratio of 1:5 and measured for 72 hrs by ThT flourescence assay relative to control.
For series [6] the target is unchanged. As to the kind of experiment: Inhibition of amyloid beta 40 (unknown origin) aggregation assessed as decrease in […] conformation of protein secondary structure at 50 uM incubated for 24 hrs by Circular dichroism spectroscopy analysis. In general terms: Circular dichroism is widely used to follow secondary structure.
Series [7] concerns PC-12. Description: Cytotoxicity against rat PC12 cells assessed as reduction in cell viability at 100 uM incubated for 24 hrs by MTT assay. Format: toxicity, cell-based. To be noted: pc-12, 24 h.
In series [8] the target is Amyloid-beta precursor protein (Homo sapiens) (UniProt P05067). Description: Induction of amyloid beta 40 fibrils (unknown origin) disaggregation assessed as decrease in relative fluorescence intensity at 500 uM incubated for 24 hrs ThT flourescence assay relative to control. Also on record: scale not given: the % may be the effect or the level left.
Series [9] shares this target. Description: Inhibition of amyloid beta 40 (unknown origin) aggregation assessed as assessed as decrease in fibril formation by measuring decrease in fibril-specific OC antibody spots at 150 uM and measured for 48 hrs by Dot-Blot assay.
For series [10], the system named is Caenorhabditis elegans. Description: Neuroprotective activity against transgenic Caenorhabditis elegans CL2355 Alzheimer's disease model expressing human amyloid beta (1 to 42 residues) in neuron assessed as increase in chemotaxis index at 50 uM incubated for 36 hrs at 16 degreeC and 36 hrs at 23 degreeC by Chemotaxis Assay (0.22. The class given is functional. The following applies: time 72 hrs.

Series [11] addresses Amyloid-beta precursor protein (Homo sapiens) (UniProt P05067). As to the kind of experiment: Inhibition of amyloid beta 40 (unknown origin) aggregation assessed as reduction in fibril formation by measuring fluorescence intensity at compound:Abeta40 concentration ratio of 1:1 and measured for 72 hrs by ThT flourescence assay relative to control.
Series [12] concerns Caenorhabditis elegans. As to the kind of experiment: Neuroprotective activity against transgenic Caenorhabditis elegans CL2355 Alzheimer's disease model expressing human amyloid beta (1 to 42 residues) in neuron assessed as increase in motility by measuring bending frequency at 5 uM incubated for 36 hrs at 16 degreeC and 36 hrs at 23 degreeC (reference value: 72). The following applies: time 72 hrs. Format: functional.

Series [13] relates to Caenorhabditis elegans. Description: Neuroprotective activity against transgenic Caenorhabditis elegans GMC101 Alzheimer's disease model expressing human amyloid beta 42 assessed as increase in fractional of unparalyzed worms at 5 uM (Rvb=51%). Format: functional.
Series [14] deals with Caenorhabditis elegans. As to the kind of experiment: Neuroprotective activity in transgenic Caenorhabditis elegans GMC101 Alzheimer's disease model overexpressing human amyloid beta (1 to 42 residues) in body-wall muscle assessed as reduction in amyloid beta fibrils incubated for 48 hrs by Western blot analysis. The class given is functional, organism-based. A general note: A western blot detects proteins with antibodies after separation by electrophoresis.

The subject of series [15] is Caenorhabditis elegans. Description: Neuroprotective activity against wild type Caenorhabditis elegans CL2122 assessed as motility changes by measuring worms bending frequency at 50 uM incubated for 36 hrs at 16 degreeC and 36 hrs at 23 degreeC. The class given is functional, organism-based. To be noted: time 72.0 hrs.
In series [16] the target is Amyloid-beta precursor protein (Homo sapiens) (UniProt P05067). Description: Inhibition of amyloid beta 40 (unknown origin) self aggregation assessed as change in fibril morphology at 500 uM incubated for 72 hrs by TEM analysis.
In series [17] the test system is Caenorhabditis elegans. Description: Neuroprotective activity against transgenic Caenorhabditis elegans CL2355 Alzheimer's disease model expressing human amyloid beta (1 to 42 residues) in neuron assessed as neutralization of damaging effect of amyloid beta aggregation by measuring increase in chemotaxis index at 50 uM incubated for 36 hrs at 16 degreeC and 36 hrs at 23 degreeC by Chemotaxis Assay. The following applies: time 72.0 hrs. Format: functional, organism-based.

Series [18] has as its system Caenorhabditis elegans. Description: Neuroprotective activity in transgenic Caenorhabditis elegans GMC101 Alzheimer's disease model expressing human amyloid beta (1 to 42 residues) in body-wall muscle assessed as increase in fraction of unparalyzed worms at 5 uM incubated for 48 hrs (Rvb= 56%). The class given is functional.
Series [19] has as its system Caenorhabditis elegans. Description: Neuroprotective activity against transgenic Caenorhabditis elegans CL2355 Alzheimer's disease model expressing human amyloid beta (1 to 42 residues) in neuron assessed as increase in motility by measuring bending frequency at 5 uM incubated for 36 hrs at 16 degreeC and 36 hrs at 23 degreeC (reference value: 74). The following applies: time 72 hrs. Format: functional.

Series [20] relates to Caenorhabditis elegans. As to the kind of experiment: Neuroprotective activity against transgenic Caenorhabditis elegans CL2355 Alzheimer's disease model expressing human amyloid beta (1 to 42 residues) in neuron assessed as increase in motility at 5 to 50 uM incubated for 36 hrs at 16 degreeC and 36 hrs at 23 degreeC. The class given is functional, organism-based. The following applies: dose 5-50 µM, time 72.0 hrs.

Series [21] has as its system Caenorhabditis elegans. As to the kind of experiment: Neuroprotective activity in transgenic Caenorhabditis elegans GMC101 Alzheimer's disease model overexpressing human amyloid beta (1 to 42 residues) in body-wall muscle assessed as reduction in oligomeric-specific A11 antibody spots incubated for 48 hrs by immunochemical dot-blot analysis. The class given is functional, organism-based.

The test system of series [22] is Caenorhabditis elegans. As to the kind of experiment: Neuroprotective activity against wild type Caenorhabditis elegans CL2122 assessed as delay in amyloid beta 42-induced paralysis at 50 uM incubated for 48 hrs. Format: functional, organism-based.
Series [23] deals with Caenorhabditis elegans. As to the kind of experiment: Neuroprotective activity in transgenic Caenorhabditis elegans GMC101 Alzheimer's disease model overexpressing human amyloid beta (1 to 42 residues) in body-wall muscle assessed as reduction in amyloid beta oligomers incubated for 48 hrs by Western blot analysis. Format: functional, organism-based.
Series [24] deals with Caenorhabditis elegans. Description: Neuroprotective activity in transgenic Caenorhabditis elegans GMC101 Alzheimer's disease model overexpressing human amyloid beta (1 to 42 residues) in body-wall muscle assessed as delay in amyloid beta 42-induced paralysis at 5 to 50 uM incubated for 48 hrs. Format: functional, organism-based. To be noted: dose 5-50 µM.
The test system of series [25] is PC-12. Description: Neuroprotective activity against amyloid beta 40-induced cytotoxicity in rat PC12 cells assessed as increase in cell viability at compound:Abeta40 concentration ratio of 1:1 and incubated for 24 hrs by MTT assay relative to control. Format: functional, cell-based.
For series [26], the system named is Caenorhabditis elegans. Description: Neuroprotective activity in transgenic Caenorhabditis elegans GMC101 Alzheimer's disease model overexpressing human amyloid beta (1 to 42 residues) in body-wall muscle assessed as reduction in fibril-specific […] antibody spots incubated for 48 hrs by immunochemical dot-blot analysis. Format: functional, organism-based.
Series [27] deals with Amyloid-beta precursor protein (Homo sapiens) (UniProt P05067). Description: Inhibition of amyloid beta 40 (unknown origin) self aggregation assessed as decrease in fibril formation at 500 uM incubated for 72 hrs by TEM analysis.
Series [28] has the same target. Description: Inhibition of amyloid beta 42 (unknown origin) aggregation assessed as reduction in fibril formation by measuring fluorescence intensity at compound:Abeta42 concentration ratio of 1:5 and measured for 72 hrs by ThT flourescence assay relative to control.

Sequence of Amyloid-beta precursor protein (Homo sapiens) (P05067 whole entry, the tested form may be a part): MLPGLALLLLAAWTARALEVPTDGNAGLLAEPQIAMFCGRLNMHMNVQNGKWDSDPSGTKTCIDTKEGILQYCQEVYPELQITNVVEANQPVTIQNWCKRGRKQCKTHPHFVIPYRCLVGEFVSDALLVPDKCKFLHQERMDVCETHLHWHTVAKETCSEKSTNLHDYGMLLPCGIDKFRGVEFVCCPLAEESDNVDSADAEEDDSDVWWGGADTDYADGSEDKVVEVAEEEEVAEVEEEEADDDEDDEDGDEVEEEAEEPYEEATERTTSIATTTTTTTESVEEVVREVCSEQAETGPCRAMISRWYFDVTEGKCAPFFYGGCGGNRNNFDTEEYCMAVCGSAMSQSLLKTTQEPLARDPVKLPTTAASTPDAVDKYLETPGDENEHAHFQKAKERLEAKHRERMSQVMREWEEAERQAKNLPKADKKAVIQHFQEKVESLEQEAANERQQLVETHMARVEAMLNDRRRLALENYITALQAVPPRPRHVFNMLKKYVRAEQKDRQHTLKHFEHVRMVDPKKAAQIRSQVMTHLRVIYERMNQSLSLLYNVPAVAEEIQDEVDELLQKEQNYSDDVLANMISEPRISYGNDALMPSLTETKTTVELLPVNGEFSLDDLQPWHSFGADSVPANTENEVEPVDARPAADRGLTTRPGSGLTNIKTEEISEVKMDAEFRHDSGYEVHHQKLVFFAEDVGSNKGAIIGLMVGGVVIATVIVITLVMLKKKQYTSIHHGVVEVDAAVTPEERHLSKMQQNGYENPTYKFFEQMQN

`CCCC[C@@H]1NC(=O)[C@@H](CC(C)C)NC(=O)[C@H](CCCCN)NC(=O)[C@@H](CO)NC(=O)N(Cc2c[nH]nn2)NC(=O)[C@@H](Cc2c[nH]c3ccccc23)NC1=O` (racemic): the inhibition entry in series [1], in [2], in series [4], in [5] and in [9] was “Active” throughout. Further, the Activity with PC-12 [3] is above 90%; in the series on PC-12 [7], “Non-Toxic”; in series [8], below 50%. Besides, the inhibition in [6] worked out at 60%.

As to `CCCC[C@@H]1NC(=O)[C@@H](CC(C)C)NC(=O)[C@H](CCCCN)NC(=O)[C@@H](CO)NC(=O)[C@H](Cc2c[nH]cn2)NC(=O)[C@@H](Cc2c[nH]c3ccccc23)NC1=O` (cyclo(K[dL][Nle][dW]H[dS])), the Activity in the series with Caenorhabditis elegans [10] was 0.32; with PC-12 [3] it was 88%; with Caenorhabditis elegans [12] it was 82; in the series with PC-12 [7], “Non-Toxic”; in the series on Caenorhabditis elegans [13], 86%; in series [8], 33%. The inhibition was found to be 50% in series [11] and 89% in [5].

`CCCC[C@@H]1NC(=O)[C@@H](CC(C)C)NC(=O)[C@H](CCCCN)NC(=O)N(CCO)NC(=O)[C@H](Cc2c[nH]cn2)NC(=O)[C@@H](Cc2c[nH]c3ccccc23)NC1=O` (racemic): the outcome in the series on Caenorhabditis elegans [14], in the series with Caenorhabditis elegans [17], in the series on Caenorhabditis elegans [21], in the series on Caenorhabditis elegans [23], in the series on PC-12 [25] and in the series on Caenorhabditis elegans [26] was Active. Besides, the outcome with Caenorhabditis elegans [15] and in the series with Caenorhabditis elegans [22] was inactive. Further, the inhibition entry in series [16], in series [1], in series [2], in [4] and in series [5] was “Active” in each case. Further, the Activity is 60% in the series on Caenorhabditis elegans [18]; 79 in the series with Caenorhabditis elegans [19]; above 90% in the series on PC-12 [3]; “Dose-Dependent Effect” in the series on Caenorhabditis elegans [20]; “Non-Toxic” in the series with PC-12 [7]; “Dose-Dependent Effect” with Caenorhabditis elegans [24]. The Activity in series [8] was below 50%. Further, the inhibition in series [6] turned out to be 60%.

On to `CCCC[C@@H]1NC(=O)[C@@H](CC(C)C)NC(=O)N(CCCCN)NC(=O)[C@@H](CO)NC(=O)[C@H](Cc2c[nH]cn2)NC(=O)[C@@H](Cc2c[nH]c3ccccc23)NC1=O` (racemic), for which the inhibition entry in [16], in [1], in [2], in [4] and in [6] was “Active” throughout. Also, the inhibition entry in [11] and in series [5] was “inactive” in each case. In addition, the Activity in the series on PC-12 [3] is above 90%; with PC-12 [7], “Non-Toxic”; in series [8], below 50%. In addition, the result with PC-12 [25] was Active.

Regarding `CCCC[C@@H]1NC(=O)[C@@H](CC(C)C)NC(=O)[C@H](CCCCN)NC(=O)[C@@H](CO)NC(=O)[C@H](Cc2c[nH]cn2)NC(=O)N(Cc2cc3ccccc3[nH]2)NC1=O`, the inhibition result in series [1], in series [4], in [6] and in series [9] was “inactive” throughout. The inhibition entry in series [2] and in series [5] was “Active” each time. In addition, the figures for the Activity entry (in the series on PC-12 [7]; in [8]) were “Toxic” and below 50%, respectively.

As to `CCCCN1NC(=O)[C@@H](CC(C)C)NC(=O)[C@H](CCCCN)NC(=O)[C@@H](CO)NC(=O)[C@H](Cc2c[nH]cn2)NC(=O)[C@@H](Cc2c[nH]c3ccccc23)NC1=O` (racemic), the result in the series with Caenorhabditis elegans [14], in the series with Caenorhabditis elegans [17], with Caenorhabditis elegans [21], in the series on Caenorhabditis elegans [23], with PC-12 [25] and in the series on Caenorhabditis elegans [26] was Active. Besides, the result in the series with Caenorhabditis elegans [15] and in the series on Caenorhabditis elegans [22] was inactive. The Activity in the series on Caenorhabditis elegans [18] was 76%; with Caenorhabditis elegans [19] it was 79; with PC-12 [3], above 90%; in the series on Caenorhabditis elegans [20], “Dose-Dependent Effect”; in the series with PC-12 [7] it was “Non-Toxic”; in the series on Caenorhabditis elegans [24] it was “Dose-Dependent Effect”. Further, the Activity in series [8] was below 50%. Further, the inhibition entry in [27], in series [1], in series [2], in [4] and in series [9] was “Active” each time. Further, the inhibition in series [11] came out at 93%; in series [28], 87.6%; in series [5], 88%. For the same compound, the inhibition entry in series [6] is “inactive”.

`CCCC[C@@H]1NC(=O)N(CC(C)C)NC(=O)[C@H](CCCCN)NC(=O)[C@@H](CO)NC(=O)[C@H](Cc2c[nH]cn2)NC(=O)[C@@H](Cc2c[nH]c3ccccc23)NC1=O` (racemic): the inhibition result in [11], in [1], in series [5] and in series [9] was “inactive” throughout. Also, the inhibition result in series [2] and in [6] was “Active” in each case. The Activity result in the series on PC-12 [7] is “Toxic”; in [8], 72%.

The record behind these values is ChEMBL document CHEMBL5352498, “Aza-Residue Modulation of Cyclic d,l-α-Peptide Nanotube Assembly with Enhanced Anti-Amyloidogenic Activity” (J Med Chem, 2023).
